The target in experiment [1] is Serine/threonine-protein kinase 16 (Homo sapiens, UniProt O75716). The experiment can be described thus: Selectivity interaction (KinomeScan (DiscoverX)) EUB0000607a STK16. The following applies: at 10 µM.
The target of experiment [2] is Microtubule-associated serine/threonine-protein kinase 2 (Homo sapiens) (UniProt Q6P0Q8). The experiment can be described thus: Selectivity interaction (ActivX KiNativ screen (kinase selectivity in THP-1 cell lysates)) EUB0000639a MAST2. The following applies: lysate. The class given is subcellular.
Experiment [3] deals with Serine/threonine-protein kinase Chk2 (Homo sapiens) (UniProt O96017). The experiment can be described thus: Selectivity interaction (ActivX KiNativ screen (kinase selectivity in THP-1 cell lysates)) EUB0000639a CHEK2. The following applies: lysate, at 0.01 µM. The format is subcellular.
A further experiment addresses SRSF protein kinase 1 (Homo sapiens, UniProt Q96SB4). The experiment can be described thus: Selectivity interaction (KinomeScan (DiscoverX)) EUB0000045b SRPK1.
Experiment [4] addresses T1, NUAK family SNF1-like kinase 2 (Homo sapiens) (UniProt Q9H093).
T1 sequence (whole entry): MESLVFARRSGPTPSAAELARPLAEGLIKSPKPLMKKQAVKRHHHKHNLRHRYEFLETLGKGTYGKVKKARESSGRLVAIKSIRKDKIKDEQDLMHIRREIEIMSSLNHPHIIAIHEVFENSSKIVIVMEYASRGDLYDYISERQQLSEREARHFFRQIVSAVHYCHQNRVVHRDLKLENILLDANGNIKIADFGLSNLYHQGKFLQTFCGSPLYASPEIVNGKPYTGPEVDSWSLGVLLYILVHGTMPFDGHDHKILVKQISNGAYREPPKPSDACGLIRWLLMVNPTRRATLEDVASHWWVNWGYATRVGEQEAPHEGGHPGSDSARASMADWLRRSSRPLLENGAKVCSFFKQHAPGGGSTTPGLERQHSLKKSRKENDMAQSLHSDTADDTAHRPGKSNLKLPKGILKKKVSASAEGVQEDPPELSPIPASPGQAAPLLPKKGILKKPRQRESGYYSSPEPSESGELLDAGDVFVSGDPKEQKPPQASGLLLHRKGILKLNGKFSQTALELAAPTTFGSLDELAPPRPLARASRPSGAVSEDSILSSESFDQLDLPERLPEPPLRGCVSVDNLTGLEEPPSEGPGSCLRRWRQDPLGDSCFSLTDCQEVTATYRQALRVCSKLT
Nature of the experiment: Selectivity interaction (ProQinase) EUB0000171b NUAK2.

The target in experiment [5] is Macrophage-stimulating protein receptor (Homo sapiens, UniProt Q04912). Nature of the experiment: Selectivity interaction (KinomeScan (DiscoverX)) EUB0000618a MST1R. The following applies: at 10 µM.
The target in experiment [6] is T2, Ephrin type-A receptor 3 (Homo sapiens) (UniProt P29320).
T2 sequence (whole entry): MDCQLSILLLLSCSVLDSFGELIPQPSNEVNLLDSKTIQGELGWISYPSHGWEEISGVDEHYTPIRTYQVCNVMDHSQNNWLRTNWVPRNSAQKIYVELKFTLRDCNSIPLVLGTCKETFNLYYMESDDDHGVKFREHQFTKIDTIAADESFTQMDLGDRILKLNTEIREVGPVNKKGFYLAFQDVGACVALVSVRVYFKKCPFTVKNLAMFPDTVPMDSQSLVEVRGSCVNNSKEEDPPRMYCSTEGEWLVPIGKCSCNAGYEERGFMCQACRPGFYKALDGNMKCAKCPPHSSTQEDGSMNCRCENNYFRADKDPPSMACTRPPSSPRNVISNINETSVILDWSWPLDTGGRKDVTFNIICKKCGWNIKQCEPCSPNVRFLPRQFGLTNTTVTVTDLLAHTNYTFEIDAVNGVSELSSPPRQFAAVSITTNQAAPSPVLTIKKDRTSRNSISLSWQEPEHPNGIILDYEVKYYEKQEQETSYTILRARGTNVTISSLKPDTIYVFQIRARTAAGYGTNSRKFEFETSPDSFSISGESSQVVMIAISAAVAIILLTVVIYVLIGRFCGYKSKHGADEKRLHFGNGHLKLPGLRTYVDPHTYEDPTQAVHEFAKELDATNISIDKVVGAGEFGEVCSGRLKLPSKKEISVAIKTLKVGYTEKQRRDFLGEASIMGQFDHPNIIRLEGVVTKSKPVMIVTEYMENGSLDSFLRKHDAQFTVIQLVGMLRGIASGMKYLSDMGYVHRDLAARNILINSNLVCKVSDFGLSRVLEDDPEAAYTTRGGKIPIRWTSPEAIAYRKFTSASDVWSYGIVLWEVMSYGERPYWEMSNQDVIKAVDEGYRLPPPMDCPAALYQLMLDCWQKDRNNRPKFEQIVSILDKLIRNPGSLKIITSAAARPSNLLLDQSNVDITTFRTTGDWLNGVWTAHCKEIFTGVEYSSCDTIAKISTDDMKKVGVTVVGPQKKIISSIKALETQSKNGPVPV
Nature of the experiment: Selectivity interaction (KinomeScan (DiscoverX)) EUB0001079a EPHA3. The note with it: at 1 µM.

A further experiment addresses Aurora kinase B (Homo sapiens, UniProt Q96GD4). The experiment can be described thus: Selectivity interaction (Kinase panel (KiNativ target engagement assay in Jurkat cells)) EUB0001635a AURKB. The format is cell-based. The following applies: Selectivity number of off-targets 0.0, Selectivity number of targets 233.0, Source Knowledge https://www.sciencedirect.com/science/article/pii/S2451945619300674?via%3Dihub, at 1 µM.

This note sets out measurements from ChEMBL document CHEMBL5465560, “Selectivity Literature for EUbOPEN Chemogenomic Library” (2024).

Molecules are shown by their SMILES.

Microtubule-associated serine/threonine-protein kinase 2 (Homo sapiens), sequence (Q6P0Q8 whole entry): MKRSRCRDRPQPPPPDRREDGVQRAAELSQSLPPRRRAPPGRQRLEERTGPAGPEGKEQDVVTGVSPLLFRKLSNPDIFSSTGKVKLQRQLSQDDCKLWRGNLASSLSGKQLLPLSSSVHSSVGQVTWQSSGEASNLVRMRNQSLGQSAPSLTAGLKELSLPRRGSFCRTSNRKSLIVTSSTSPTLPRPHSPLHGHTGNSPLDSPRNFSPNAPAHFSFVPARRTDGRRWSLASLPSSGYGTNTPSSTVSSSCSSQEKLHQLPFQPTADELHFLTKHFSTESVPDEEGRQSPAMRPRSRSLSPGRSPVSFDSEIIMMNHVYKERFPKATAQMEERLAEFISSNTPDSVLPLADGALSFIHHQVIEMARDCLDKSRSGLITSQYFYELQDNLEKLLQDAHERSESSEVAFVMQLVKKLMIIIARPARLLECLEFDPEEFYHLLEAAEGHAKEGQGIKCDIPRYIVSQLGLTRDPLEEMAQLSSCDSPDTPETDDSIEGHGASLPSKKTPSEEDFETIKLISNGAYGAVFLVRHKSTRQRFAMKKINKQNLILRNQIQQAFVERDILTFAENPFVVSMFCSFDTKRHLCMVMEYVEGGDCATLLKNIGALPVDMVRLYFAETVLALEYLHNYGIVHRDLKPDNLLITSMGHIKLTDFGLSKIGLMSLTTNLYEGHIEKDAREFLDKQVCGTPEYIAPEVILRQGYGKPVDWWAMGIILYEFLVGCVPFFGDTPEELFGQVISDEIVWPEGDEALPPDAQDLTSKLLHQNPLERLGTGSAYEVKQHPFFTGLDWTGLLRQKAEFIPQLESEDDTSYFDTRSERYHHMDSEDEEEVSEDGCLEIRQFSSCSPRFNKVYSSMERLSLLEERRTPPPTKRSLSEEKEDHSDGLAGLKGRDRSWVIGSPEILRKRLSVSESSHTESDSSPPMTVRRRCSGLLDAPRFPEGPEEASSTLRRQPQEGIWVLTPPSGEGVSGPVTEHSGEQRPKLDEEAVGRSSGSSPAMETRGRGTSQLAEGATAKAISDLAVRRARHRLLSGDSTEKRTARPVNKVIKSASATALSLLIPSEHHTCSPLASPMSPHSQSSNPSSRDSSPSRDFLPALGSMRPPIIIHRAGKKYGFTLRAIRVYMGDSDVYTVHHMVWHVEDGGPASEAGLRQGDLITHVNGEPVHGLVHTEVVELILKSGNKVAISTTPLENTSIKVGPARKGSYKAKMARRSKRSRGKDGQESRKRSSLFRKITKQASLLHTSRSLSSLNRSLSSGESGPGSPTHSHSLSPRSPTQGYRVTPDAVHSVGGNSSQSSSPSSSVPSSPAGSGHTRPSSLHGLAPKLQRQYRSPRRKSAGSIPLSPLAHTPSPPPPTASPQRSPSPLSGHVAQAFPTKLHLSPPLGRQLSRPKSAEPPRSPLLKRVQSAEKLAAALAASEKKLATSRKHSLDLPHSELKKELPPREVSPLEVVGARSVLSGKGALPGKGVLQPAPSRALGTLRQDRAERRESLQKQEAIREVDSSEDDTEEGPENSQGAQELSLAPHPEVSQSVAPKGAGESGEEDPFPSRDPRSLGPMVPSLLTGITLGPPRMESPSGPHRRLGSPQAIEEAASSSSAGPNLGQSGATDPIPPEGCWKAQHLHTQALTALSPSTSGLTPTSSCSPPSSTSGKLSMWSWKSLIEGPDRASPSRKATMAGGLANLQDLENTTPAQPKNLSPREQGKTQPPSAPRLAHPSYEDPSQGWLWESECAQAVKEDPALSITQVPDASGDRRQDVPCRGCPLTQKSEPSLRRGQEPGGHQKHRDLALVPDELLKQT
SRSF protein kinase 1, sequence (Q96SB4 whole entry): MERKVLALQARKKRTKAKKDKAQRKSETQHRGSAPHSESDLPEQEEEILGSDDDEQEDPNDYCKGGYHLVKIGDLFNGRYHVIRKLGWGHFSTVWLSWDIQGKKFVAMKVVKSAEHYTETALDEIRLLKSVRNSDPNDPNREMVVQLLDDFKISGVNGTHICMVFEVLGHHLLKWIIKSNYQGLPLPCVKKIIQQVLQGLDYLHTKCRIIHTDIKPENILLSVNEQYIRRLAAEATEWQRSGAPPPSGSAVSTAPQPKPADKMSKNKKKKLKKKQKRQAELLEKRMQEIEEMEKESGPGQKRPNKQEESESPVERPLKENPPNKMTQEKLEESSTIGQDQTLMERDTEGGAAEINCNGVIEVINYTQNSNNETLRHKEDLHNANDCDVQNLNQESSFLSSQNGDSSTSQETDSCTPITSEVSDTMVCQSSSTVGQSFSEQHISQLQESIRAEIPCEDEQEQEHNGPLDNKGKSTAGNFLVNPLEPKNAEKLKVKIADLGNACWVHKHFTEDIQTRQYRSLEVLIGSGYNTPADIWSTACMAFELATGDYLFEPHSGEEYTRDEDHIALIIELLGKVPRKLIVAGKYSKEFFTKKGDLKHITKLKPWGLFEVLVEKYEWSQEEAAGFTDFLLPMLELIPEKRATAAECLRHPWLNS
Serine/threonine-protein kinase 16, sequence (O75716 whole entry): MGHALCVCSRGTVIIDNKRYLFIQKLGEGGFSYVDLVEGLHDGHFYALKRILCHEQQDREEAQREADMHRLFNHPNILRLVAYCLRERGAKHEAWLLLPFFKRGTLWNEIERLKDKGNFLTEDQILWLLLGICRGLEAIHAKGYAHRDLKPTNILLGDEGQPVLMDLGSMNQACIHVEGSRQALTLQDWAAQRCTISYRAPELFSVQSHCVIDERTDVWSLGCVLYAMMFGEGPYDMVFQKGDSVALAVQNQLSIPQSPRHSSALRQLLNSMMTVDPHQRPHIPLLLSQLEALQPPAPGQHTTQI
Aurora kinase B, sequence (Q96GD4 whole entry): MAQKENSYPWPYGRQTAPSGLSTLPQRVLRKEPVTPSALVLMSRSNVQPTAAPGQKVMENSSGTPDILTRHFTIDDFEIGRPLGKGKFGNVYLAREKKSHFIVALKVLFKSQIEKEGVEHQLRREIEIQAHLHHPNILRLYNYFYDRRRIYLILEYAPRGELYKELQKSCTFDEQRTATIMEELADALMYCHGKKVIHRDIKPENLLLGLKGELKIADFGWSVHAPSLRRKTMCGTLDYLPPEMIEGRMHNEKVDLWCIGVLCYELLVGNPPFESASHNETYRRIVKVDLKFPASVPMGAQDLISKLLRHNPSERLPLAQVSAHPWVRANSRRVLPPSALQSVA
Macrophage-stimulating protein receptor, sequence (Q04912 25-304 limits assumed): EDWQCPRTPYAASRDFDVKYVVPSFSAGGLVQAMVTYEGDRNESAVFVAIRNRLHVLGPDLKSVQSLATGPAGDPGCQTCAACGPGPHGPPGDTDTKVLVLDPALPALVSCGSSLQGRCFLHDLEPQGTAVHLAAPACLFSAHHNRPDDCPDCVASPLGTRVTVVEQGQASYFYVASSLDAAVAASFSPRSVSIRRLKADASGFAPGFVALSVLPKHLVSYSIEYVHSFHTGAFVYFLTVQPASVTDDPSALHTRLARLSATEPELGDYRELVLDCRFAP
Macrophage-stimulating protein receptor, sequence (Q04912 310-1400 limits assumed): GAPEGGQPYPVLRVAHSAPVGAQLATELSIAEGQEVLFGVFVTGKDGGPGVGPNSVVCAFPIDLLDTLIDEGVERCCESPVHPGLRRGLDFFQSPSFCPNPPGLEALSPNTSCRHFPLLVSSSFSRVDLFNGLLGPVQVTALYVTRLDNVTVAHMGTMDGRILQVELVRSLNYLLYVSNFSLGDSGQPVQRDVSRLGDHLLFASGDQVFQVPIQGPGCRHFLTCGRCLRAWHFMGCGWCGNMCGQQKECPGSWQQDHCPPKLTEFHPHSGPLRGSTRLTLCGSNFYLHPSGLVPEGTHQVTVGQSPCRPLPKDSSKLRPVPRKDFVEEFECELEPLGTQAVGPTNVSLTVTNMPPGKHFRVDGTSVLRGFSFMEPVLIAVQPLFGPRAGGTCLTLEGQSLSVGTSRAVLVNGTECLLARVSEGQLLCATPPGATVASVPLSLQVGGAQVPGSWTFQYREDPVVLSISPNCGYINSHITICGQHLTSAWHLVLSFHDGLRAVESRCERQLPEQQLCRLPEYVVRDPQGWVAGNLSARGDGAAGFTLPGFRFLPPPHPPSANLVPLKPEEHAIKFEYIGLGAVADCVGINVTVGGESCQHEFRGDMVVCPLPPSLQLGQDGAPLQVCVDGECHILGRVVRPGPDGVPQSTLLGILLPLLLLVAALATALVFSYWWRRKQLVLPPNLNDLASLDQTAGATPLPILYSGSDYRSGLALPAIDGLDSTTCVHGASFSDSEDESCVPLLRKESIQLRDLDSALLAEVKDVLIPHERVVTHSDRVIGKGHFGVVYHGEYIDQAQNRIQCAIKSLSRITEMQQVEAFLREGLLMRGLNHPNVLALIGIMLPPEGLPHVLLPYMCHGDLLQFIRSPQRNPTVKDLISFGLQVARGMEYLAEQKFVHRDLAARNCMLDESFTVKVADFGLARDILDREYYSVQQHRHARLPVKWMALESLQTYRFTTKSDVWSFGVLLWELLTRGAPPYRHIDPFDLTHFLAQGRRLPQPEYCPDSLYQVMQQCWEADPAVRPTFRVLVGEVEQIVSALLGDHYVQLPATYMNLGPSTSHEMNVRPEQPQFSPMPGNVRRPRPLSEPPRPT
Serine/threonine-protein kinase Chk2 (Homo sapiens), sequence (O96017 whole entry): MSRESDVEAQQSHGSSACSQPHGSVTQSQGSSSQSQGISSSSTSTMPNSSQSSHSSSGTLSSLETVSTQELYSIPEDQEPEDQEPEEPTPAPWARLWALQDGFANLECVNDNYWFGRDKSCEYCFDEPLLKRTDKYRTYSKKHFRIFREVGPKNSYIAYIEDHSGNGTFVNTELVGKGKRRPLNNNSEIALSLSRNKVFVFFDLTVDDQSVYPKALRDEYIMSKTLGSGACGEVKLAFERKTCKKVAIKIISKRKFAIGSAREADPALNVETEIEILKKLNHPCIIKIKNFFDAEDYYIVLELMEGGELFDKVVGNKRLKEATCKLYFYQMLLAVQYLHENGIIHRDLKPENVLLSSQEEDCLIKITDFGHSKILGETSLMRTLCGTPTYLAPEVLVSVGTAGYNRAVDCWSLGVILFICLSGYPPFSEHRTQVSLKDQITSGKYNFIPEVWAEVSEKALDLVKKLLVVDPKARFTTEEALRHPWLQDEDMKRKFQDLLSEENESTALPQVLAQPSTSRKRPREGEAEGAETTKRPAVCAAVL

In turn, `CNC(=O)Nc1ccc(-c2nc(N3CC4CCC(C3)O4)c3cnn(C4CCC5(CC4)OCCO5)c3n2)cc1` registered a % of control in experiment [1] of 98%.
In the case of `CC[C@@H]1[C@H](F)C(=O)N[C@@H]1COc1nccc2cc(C(N)=O)c(OC)cc12` [ZIMLOVISERTIB], the % of inhibition in experiment [2] (at 0.01 µM) was -0.4%; in experiment [2] (at 0.04 µM), -2.4%; in experiment [2] (at 0.2 µM) it was -2.5%; in experiment [2] (at 1 µM) it was -1.4%; in experiment [2] (at 5 µM), -30.3%; in experiment [3] it was -4.8%.
For the molecule `C=CC(=O)Nc1cc(-n2c(=O)ccc3cnc4ccc(-c5ccc(NS(C)(=O)=O)cc5)cc4c32)ccc1C`, the % of control turned out to be 78% at SRSF protein kinase 1 (at 1 µM) and 100% at SRSF protein kinase 1 (at 10 µM).
Consider `C=CC(=O)Nc1cccc(C(=O)Nc2ccc(Nc3cc(-c4[nH]c(SC)nc4C)ccn3)cc2)c1`, for which the % of control in experiment [4] (at 1 µM) was found to be 99%; in experiment [4] (at 5 µM), 87%.
Take `O[C@H]1CC[C@H](Nc2ncc3nc(Nc4c(F)cc(F)cc4F)n([C@H]4CCOC4)c3n2)CC1`: the % of control in experiment [5] stood at 100%.
In turn, `Nc1cnc(N2CCc3cc(S(=O)(=O)Nc4c(F)cc(Cl)cc4F)cc(N4CCCC4=O)c32)nc1` [TP-020n] yielded a % of control in experiment [6] of 78%.
At Aurora kinase B, `C=CC(=O)Nc1ccc(C(=O)Nc2[nH]nc3c2CN(C(=O)N[C@H](CN(C)C)c2ccccc2)C3(C)C)cc1` showed a % of engagement of 23%.
